Source: patent US11639343B2, “Compounds targeting and degrading BCR-ABL protein and its antitumor application” (ShanghaiTech University, priority 2019, dated 2023)

Key:
[1] = test system: K562 (BCR-ABL+) cells; test: CCK-8 proliferation inhibition, K562 cells; format: cell-based, human; conditions: Homo sapiens, K562, 48 h, CCK-8, 48 hours of drug treatment; read-out: Proliferative inhibitory activity (IC50, nM) K562 (BCR-ABL+);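 further: Ten-point threefold dilution series starting at 10 µM, absorbance at 450 nm after 2 h with CCK-8, DMSO as negative control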
[2] = test system: U937 (BCR-ABL-) cells; test: CCK-8 proliferation inhibition, U937 cells; format: cell-based, human; conditions: Homo sapiens, U-937; CCK-8, 48 hours of drug treatment, highest concentration 10 μM; read-out: Proliferative inhibitory activity (IC50, nM) U937 (BCR-ABL-);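 further: Ten-point threefold dilution series, absorbance at 450 nm after 2 h with CCK-8 reagent, DMSO as negative control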
[3] = test system: HEK293 (BCR-ABL-) cells; test: CCK-8 proliferation inhibition, HEK293 cells; conditions: Homo sapiens, HEK293, 48 h, read-out: Proliferative inhibitory activity (IC50, nM) HEK293 (BCR-ABL-);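 further: Ten-point threefold dilution series starting at 10 µM, CCK-8 absorbance at 450 nm read after 2 h reagent incubation, DMSO-treated cells as negative control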
[4] = target: c-ABL protein (Homo sapiens, UniProt P00519); test: Western blot degradation of c-ABL in K562 cells; format: cell-based; design: Western blot was used to detect the expression of BCR-ABL and c-ABL protein in K562 cells; endogenous in cells; host or cells: K562; conditions: 16 hours, 1 nM-10 μM
Sequence of c-ABL protein (P00519 whole entry): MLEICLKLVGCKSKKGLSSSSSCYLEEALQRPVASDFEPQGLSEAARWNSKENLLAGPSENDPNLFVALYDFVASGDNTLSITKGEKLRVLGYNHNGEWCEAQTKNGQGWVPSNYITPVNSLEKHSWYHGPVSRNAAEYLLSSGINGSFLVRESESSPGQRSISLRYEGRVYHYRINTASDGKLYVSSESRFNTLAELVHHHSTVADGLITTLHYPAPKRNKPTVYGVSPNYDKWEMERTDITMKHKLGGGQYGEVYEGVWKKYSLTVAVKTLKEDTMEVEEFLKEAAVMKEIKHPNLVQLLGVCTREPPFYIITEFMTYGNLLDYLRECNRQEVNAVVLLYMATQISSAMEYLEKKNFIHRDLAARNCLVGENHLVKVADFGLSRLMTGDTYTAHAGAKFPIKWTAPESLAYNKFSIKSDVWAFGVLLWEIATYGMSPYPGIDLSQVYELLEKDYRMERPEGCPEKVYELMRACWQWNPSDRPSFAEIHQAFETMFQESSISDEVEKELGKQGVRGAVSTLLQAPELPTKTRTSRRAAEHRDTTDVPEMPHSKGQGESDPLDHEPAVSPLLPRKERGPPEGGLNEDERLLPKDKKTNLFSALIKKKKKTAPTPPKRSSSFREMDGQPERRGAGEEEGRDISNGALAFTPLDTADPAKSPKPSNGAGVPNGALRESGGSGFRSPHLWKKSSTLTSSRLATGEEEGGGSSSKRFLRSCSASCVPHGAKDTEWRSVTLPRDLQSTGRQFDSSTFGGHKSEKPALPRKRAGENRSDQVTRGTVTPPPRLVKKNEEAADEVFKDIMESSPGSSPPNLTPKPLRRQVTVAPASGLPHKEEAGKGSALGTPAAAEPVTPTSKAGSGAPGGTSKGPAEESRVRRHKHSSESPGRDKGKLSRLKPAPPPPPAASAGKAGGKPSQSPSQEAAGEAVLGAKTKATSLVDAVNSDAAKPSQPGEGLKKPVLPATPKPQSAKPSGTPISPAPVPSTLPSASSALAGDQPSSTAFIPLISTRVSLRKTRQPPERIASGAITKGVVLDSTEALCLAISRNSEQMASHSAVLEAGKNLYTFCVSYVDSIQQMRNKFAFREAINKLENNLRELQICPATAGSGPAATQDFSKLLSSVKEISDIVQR
Experimental: (§1) (1) Cell seed: K562 cells were added to the 24 well plates, with a cell density of 3×10^5/ml and a total volume of 1.5 ml; Five concentration gradients, 1 nm, 10 nm, 100 nm, 1 μM, and 10 μM, were respectively set for PROTAD series compounds and comparative examples compounds (Dasa-6-2-2-6-VHL, Dasa-6-2-6-CRBN). […] After 16 hours of drug treatment, the cells were collected in 1.5 ml ep tube, centrifuged at 3000 rpm for 3 minutes, and then added 30 μL PBS and 30 ul 2×SDS to cell precipitated, lysate Heat at 100° C. for 5 minutes, then place on ice for 5 minutes, centrifuged at 10000 rpm for 5 minutes, and take the supernatant as the total protein extracted. The protein concentration was determined by the Bradford method. After each sample was at the same concentration, bromophenol blue was added as the sample indicator.
(§2) (2) Electrophoresis: the starting voltage of the BioRad electrophoresis instrument was 80V, and as the dye enters the separation gel, the voltage was adjusted to 120V;
(§3) (3) Film transfer: prepare filter paper and nitrocellulose membrane with the corresponding size of the gel, filter paper, and NC film were soaked in transfer electrophoresis buffer.
(§4) DC50 (concentration required to degrade protein by half) were calculated based on the intensity from western blot, and data were analyzed via Prism GraphPad with non-linear regression.

[5] = target: BCR-ABL protein (Homo sapiens, UniProt P00519); test: Western blot degradation of BCR-ABL in K562 cells; format: cell-based; design: Western blot was used to detect the expression of BCR-ABL and c-ABL protein in K562 cells; BCR (fusion partner, P11274); endogenous in cells; host or cells: K562; the other entry of the earlier key: BCR (P11274, Breakpoint cluster region protein); conditions: 16 hours; for DC50: 1 nM-10 μM
Sequence of BCR-ABL protein (P00519 with tags, fused parts or gaps): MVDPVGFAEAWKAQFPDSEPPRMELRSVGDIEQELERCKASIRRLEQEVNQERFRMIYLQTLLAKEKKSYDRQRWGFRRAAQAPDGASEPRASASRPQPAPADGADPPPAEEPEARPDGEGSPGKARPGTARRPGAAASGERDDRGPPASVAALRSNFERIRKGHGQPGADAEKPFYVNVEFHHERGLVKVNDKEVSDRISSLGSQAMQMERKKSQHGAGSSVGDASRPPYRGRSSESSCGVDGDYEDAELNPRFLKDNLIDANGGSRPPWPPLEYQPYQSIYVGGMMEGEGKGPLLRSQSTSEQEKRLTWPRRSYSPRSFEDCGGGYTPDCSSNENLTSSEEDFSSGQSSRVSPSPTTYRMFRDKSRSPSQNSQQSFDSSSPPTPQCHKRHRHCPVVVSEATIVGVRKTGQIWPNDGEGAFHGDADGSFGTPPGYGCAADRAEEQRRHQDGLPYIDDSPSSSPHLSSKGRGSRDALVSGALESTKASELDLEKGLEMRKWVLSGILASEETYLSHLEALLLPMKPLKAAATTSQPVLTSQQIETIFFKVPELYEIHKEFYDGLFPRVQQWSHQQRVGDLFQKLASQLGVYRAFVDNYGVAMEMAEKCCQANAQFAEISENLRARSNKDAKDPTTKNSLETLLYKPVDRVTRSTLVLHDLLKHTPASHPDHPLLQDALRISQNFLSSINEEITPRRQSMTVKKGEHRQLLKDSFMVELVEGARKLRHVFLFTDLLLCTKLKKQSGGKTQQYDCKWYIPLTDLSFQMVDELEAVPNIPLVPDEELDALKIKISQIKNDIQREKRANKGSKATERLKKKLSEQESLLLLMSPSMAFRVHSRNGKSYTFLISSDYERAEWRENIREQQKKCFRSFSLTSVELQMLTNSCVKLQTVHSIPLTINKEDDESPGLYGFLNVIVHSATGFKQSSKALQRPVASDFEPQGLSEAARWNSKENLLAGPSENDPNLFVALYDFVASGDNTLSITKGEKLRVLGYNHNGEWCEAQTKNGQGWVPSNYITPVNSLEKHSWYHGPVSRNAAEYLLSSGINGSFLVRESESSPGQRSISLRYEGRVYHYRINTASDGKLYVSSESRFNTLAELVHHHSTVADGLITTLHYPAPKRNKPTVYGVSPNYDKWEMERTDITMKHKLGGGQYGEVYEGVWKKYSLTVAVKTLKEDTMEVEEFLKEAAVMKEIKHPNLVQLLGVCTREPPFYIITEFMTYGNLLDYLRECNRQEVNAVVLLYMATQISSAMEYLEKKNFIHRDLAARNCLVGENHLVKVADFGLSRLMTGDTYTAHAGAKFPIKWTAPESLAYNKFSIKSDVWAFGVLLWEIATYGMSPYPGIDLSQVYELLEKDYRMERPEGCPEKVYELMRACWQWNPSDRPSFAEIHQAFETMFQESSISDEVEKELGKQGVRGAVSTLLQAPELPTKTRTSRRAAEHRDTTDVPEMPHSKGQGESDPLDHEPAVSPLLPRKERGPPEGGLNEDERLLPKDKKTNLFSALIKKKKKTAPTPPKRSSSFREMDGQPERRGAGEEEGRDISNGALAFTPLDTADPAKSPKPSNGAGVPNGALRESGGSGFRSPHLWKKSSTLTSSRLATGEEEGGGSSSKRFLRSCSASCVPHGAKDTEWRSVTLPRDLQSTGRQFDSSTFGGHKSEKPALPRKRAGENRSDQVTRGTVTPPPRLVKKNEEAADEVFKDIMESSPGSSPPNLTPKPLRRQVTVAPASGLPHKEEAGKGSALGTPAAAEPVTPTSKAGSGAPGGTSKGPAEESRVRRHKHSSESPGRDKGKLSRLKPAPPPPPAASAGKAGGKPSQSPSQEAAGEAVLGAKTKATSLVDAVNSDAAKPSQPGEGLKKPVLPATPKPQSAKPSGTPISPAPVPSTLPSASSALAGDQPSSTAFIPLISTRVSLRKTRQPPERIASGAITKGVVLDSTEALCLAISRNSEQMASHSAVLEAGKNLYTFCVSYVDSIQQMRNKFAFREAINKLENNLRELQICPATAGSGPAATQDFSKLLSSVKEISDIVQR
Experimental: as §1, §2, §3, §4

Compound | IC50 [1] | IC50 [2] | DC50 [4] | DC50 [5] | degradation of BCR-ABL protein (in words) [5] | IC50 [3]
Cc1nc(Nc2ncc(C(=O)Nc3c(C)cccc3Cl)s2)cc(N2CCN(C(=O)CCCCCCCC(=O)N[C@H](C(=O)N3C[C@H](O)C[C@H]3C(=O)NCc3ccc(-c4scnc4C)cc3)C(C)(C)C)CC2)n1 [SIAIS151179, N-(2-chloro-6-methylphenyl)-2-((6-(4-(9-(((S)-1-((2S,4R)-4-hydroxy-2-((4-(4-methylthiazol-5-yl)benzyl)carbamoyl)pyrrolidin-1-yl)-3,3-dimethyl-1-oxobutan-2-yl)amino)-9-oxononanoyl)piperazin-1-yl)-2-methylpyrimidin-4-yl)amino)thiazole-5-carboxamide] | 22.4 nM | > 10000 nM | 100 to 1000 nM | 10 to 100 nM |  | > 10000 nM
Cc1nc(Nc2ncc(C(=O)Nc3c(C)cccc3Cl)s2)cc(N2CCN(CCCCCCOCCOCCOCCCCCC(=O)N[C@H](C(=O)N3C[C@H](O)C[C@H]3C(=O)NCc3ccc(-c4scnc4C)cc3)C(C)(C)C)CC2)n1 [Dasa-6-2-2-6-vhl, N-(2-chloro-6-methylphenyl)-2-((6-(4-((S)-3-((2S,4R)-4-hydroxy-2-((4-(4-methylthiazol-5-yl)benzyl)carbamoyl)pyrrolidine-1-carbonyl)-2,2-dimethyl-5-oxo-11,14,17-trioxa-4-azatricosan-23-yl)piperazin-1-yl)-2-methylpyrimidin-4-yl)amino)thiazole-5-carboxamide, reference compound] |  |  |  |  | cannot degrade BCR-ABL protein | 
Cc1ccc(NC(=O)c2ccc(CN3CCN(C(=O)CCOCCOCCOCCOCCC(=O)N[C@H](C(=O)N4C[C@H](O)C[C@H]4C(=O)NCc4ccc(-c5scnc5C)cc4)C(C)(C)C)CC3)cc2)cc1Nc1nccc(-c2cccnc2)n1 [SIAIS1197039, (2S,4R)-1-((S)-2-(tert-butyl)-19-(4-(4-((4-methyl-3-((4-(pyridin-3-yl)pyrimidin-2-yl)amino)phenyl)carbamoyl)benzyl)piperazin-1-yl)-4,19-dioxo-7,10,13,16-tetraoxa-3-azanonadecanoyl)-4-hydroxy-N-(4-(4-methylthiazol-5-yl)benzyl)pyrrolidine-2-carboxamide] |  |  | 1000 nM | 1000 nM |  | 
COc1cc(Nc2c(C#N)cnc3cc(OCCCN4CCN(C(=O)CNc5cccc6c5C(=O)N(C5CCC(=O)NC5=O)C6=O)CC4)c(OC)cc23)c(Cl)cc1Cl (stereo not drawn) [SIAIS151164, 4-((2,4-dichloro-5-methoxyphenyl)amino)-7-(3-(4-((2-(2,6-dioxopiperidin-3-yl)-1,3-dioxoisoindolin-4-yl)glycyl)piperazin-1-yl)propoxy)-6-methoxyquinoline-3-carbonitrile] |  |  | 10 to 100 nM | 10 to 100 nM |  | 
Cc1ccc(NC(=O)c2ccc(CN3CCN(C(=O)CCCCCCC(=O)N[C@H](C(=O)N4C[C@H](O)C[C@H]4C(=O)NCc4ccc(-c5scnc5C)cc4)C(C)(C)C)CC3)cc2)cc1Nc1nccc(-c2cccnc2)n1 [SIAIS074031, (2S,4R)-1-((S)-3,3-dimethyl-2-(8-(4-(4-((4-methyl-3-((4-(pyridin-3-yl)pyrimidin-2-yl)amino)phenyl)carbamoyl)benzyl)piperazin-1-yl)-8-oxooctanamido)butanoyl)-4-hydroxy-N-(4-(4-methylthiazol-5-yl)benzyl)pyrrolidine-2-carboxamide] |  |  | 100 to 1000 nM | 100 to 1000 nM |  | 

More lines, main results first:

IC50 [1] | IC50 [2] | DC50 [4] | DC50 [5] | degradation of BCR-ABL protein (in words) [5] | Compound | IC50 [3]
0.55 nM | > 10000 nM | 1 to 10 nM | < 1 nM |  | Cc1nc(Nc2ncc(C(=O)Nc3c(C)cccc3Cl)s2)cc(N2CCN(C(=O)CCCCNc3cccc4c3C(=O)N(C3CCC(=O)NC3=O)C4=O)CC2)n1 (stereo not drawn) [SIAIS151071, N-(2-chloro-6-methylphenyl)-2-((6-(4-(5-((2-(2,6-dioxopiperidin-3-yl)-1,3-dioxoisoindolin-4-yl)amino)pentanoyl)piperazin-1-yl)-2-methylpyrimidin-4-yl)amino)thiazole-5-carboxamide] | > 10000 nM
40.4 nM | > 10000 nM | 10 to 100 nM | 1 to 10 nM |  | Cc1nc(Nc2ncc(C(=O)Nc3c(C)cccc3Cl)s2)cc(N2CCN(C(=O)CCOCCOCCOCCOCCNc3cccc4c3C(=O)N(C3CCC(=O)NC3=O)C4=O)CC2)n1 (stereo not drawn) [SIAIS151068, N-(2-chloro-6-methylphenyl)-2-((6-(4-(1-((2-(2,6-dioxopiperidin-3-yl)-1,3-dioxoisoindolin-4-yl)amino)-3,6,9,12-tetraoxapentadecan-15-oyl)piperazin-1-yl)-2-methylpyrimidin-4-yl)amino)thiazole-5-carboxamide] | > 10000 nM
894 nM | > 10000 nM | 10 to 100 nM | 10 to 100 nM |  | COc1cc(Nc2c(C#N)cnc3cc(OCCCN4CCN(C(=O)CCCCCNc5cccc6c5C(=O)N(C5CCC(=O)NC5=O)C6=O)CC4)c(OC)cc23)c(Cl)cc1Cl (stereo not drawn) [SIAIS151166, 4-((2,4-dichloro-5-methoxyphenyl)amino)-7-(3-(4-(6-((2-(2,6-dioxopiperidin-3-yl)-1,3-dioxoisoindolin-4-yl)amino)hexanoyl)piperazin-1-yl)propoxy)-6-methoxyquinoline-3-carbonitrile] | > 10000 nM
37.6 nM | > 10000 nM | 10 to 100 nM | 1 to 10 nM |  | Cc1nc(Nc2ncc(C(=O)Nc3c(C)cccc3Cl)s2)cc(N2CCN(C(=O)CCCCCC(=O)N[C@H](C(=O)N3C[C@H](O)C[C@H]3C(=O)NCc3ccc(-c4scnc4C)cc3)C(C)(C)C)CC2)n1 [SIAIS151177, N-(2-chloro-6-methylphenyl)-2-((6-(4-(7-(((S)-1-((2S,4R)-4-hydroxy-2-((4-(4-methylthiazol-5-yl)benzyl)carbamoyl)pyrrolidin-1-yl)-3,3-dimethyl-1-oxobutan-2-yl)amino)-7-oxoheptanoyl)piperazin-1-yl)-2-methylpyrimidin-4-yl)amino)thiazole-5-carboxamide] | > 10000 nM
5.5 nM | > 10000 nM | 1 to 10 nM | 1 to 10 nM |  | Cc1nc(Nc2ncc(C(=O)Nc3c(C)cccc3Cl)s2)cc(N2CCN(C(=O)CCCNc3cccc4c3C(=O)N(C3CCC(=O)NC3=O)C4=O)CC2)n1 (stereo not drawn) [SIAIS151070, N-(2-chloro-6-methylphenyl)-2-((6-(4-(4-((2-(2,6-dioxopiperidin-3-yl)-1,3-dioxoisoindolin-4-yl)amino)butanoyl)piperazin-1-yl)-2-methylpyrimidin-4-yl)amino)thiazole-5-carboxamide] | > 10000 nM
3650 nM | > 10000 nM | 10 to 100 nM | 10 to 100 nM |  | COc1cc(Nc2c(C#N)cnc3cc(OCCCN4CCN(C(=O)CCCCCCNc5cccc6c5C(=O)N(C5CCC(=O)NC5=O)C6=O)CC4)c(OC)cc23)c(Cl)cc1Cl (stereo not drawn) [SIAIS151167, 4-((2,4-dichloro-5-methoxyphenyl)amino)-7-(3-(4-(7-((2-(2,6-dioxopiperidin-3-yl)-1,3-dioxoisoindolin-4-yl)amino)heptanoyl)piperazin-1-yl)propoxy)-6-methoxyquinoline-3-carbonitrile] | > 10000 nM
